In the supplement of paper PMC10307832:

What was measured:
Experiment in all cases: relative viability (nuclei count vs DMSO), 5 days (fraction); higher = more cells survive
A-427 = test system: A-427
Summary of the method: (§1)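 One day after seeding in 1536-well plates, lung cancer cell lines were dosed by pin tool. Dosing was either single-drug or a fixed anchor-drug dose plus five library-drug doses (not always all listed) in √10 steps. After 5 days, nuclei were stained in one fix-and-stain step and counted on 4× images, and relative viability is the nuclei count of treated wells over that of vehicle wells, given as the median of duplicate plates.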

COR-L 105 = test system: COR-L 105
Summary of the method: as §1

EPLC-272H = test system: EPLC-272H
Summary of the method: as §1

HCC-366 = test system: HCC-366
Summary of the method: as §1

HCC-78 = test system: HCC-78
Summary of the method: as §1

HOP-62 = test system: HOP-62
Summary of the method: as §1

LC-2-ad = test system: LC-2-ad
Summary of the method: as §1

LU99A = test system: LU99A
Summary of the method: as §1

LXF-289 = test system: LXF-289
Summary of the method: as §1

NCI-H1666 = test system: NCI-H1666
Summary of the method: as §1

NCI-H1792 = test system: NCI-H1792
Summary of the method: as §1

NCI-H1793 = test system: NCI-H1793
Summary of the method: as §1

NCI-H1915 = test system: NCI-H1915
Summary of the method: as §1

NCI-H1944 = test system: NCI-H1944
Summary of the method: as §1

NCI-H2009 = test system: NCI-H2009
Summary of the method: as §1

NCI-H2085 = test system: NCI-H2085
Summary of the method: as §1

NCI-H2170 = test system: NCI-H2170
Summary of the method: as §1

NCI-H358 = test system: NCI-H358
Summary of the method: as §1

NCI-H460 = test system: NCI-H460
Summary of the method: as §1

SK-LU-1 = test system: SK-LU-1
Summary of the method: as §1

SW 900 = test system: SW 900
Summary of the method: as §1

UMC-11 = test system: UMC-11
Summary of the method: as §1

Structure (SMILES): Cc1sc2c(c1C)C(c1ccc(Cl)cc1)=N[C@@H](CC(=O)OC(C)(C)C)c1nnc(C)n1-2 [JQ1] + Nc1ncn([C@H]2C[C@H](O)[C@@H](CO)O2)c(=O)n1 [Decitabine] (partner 2 µM)
- relative viability (A-427; first compound 0.04 µM): 0.57
- relative viability (A-427; first compound 0.1265 µM): 0.506
- relative viability (A-427; first compound 0.4 µM): 0.591
- relative viability (A-427; first compound 1.265 µM): 0.495
- relative viability (A-427; first compound 4 µM): 0.478
- relative viability (COR-L 105; first compound 0.04 µM): 0.558
- relative viability (COR-L 105; first compound 0.1265 µM): 0.457
- relative viability (COR-L 105; first compound 0.4 µM): 0.399
- relative viability (COR-L 105; first compound 1.265 µM): 0.33
- relative viability (COR-L 105; first compound 4 µM): 0.386
- relative viability (EPLC-272H; first compound 0.04 µM): 0.365
- relative viability (EPLC-272H; first compound 0.1265 µM): 0.352
- relative viability (EPLC-272H; first compound 0.4 µM): 0.323
- relative viability (EPLC-272H; first compound 1.265 µM): 0.246
- relative viability (EPLC-272H; first compound 4 µM): 0.253
- relative viability (HCC-366; first compound 0.04 µM): 0.309
- relative viability (HCC-366; first compound 0.4 µM): 0.35
- relative viability (HCC-366; first compound 1.265 µM): 0.36
- relative viability (HCC-366; first compound 4 µM): 0.293
- relative viability (HCC-78; first compound 0.04 µM): 0.604
- relative viability (HCC-78; first compound 0.1265 µM): 0.529
- relative viability (HCC-78; first compound 0.4 µM): 0.691
- relative viability (HCC-78; first compound 1.265 µM): 0.563
- relative viability (HCC-78; first compound 4 µM): 0.588
- relative viability (HOP-62; first compound 0.04 µM): 0.238
- relative viability (HOP-62; first compound 0.1265 µM): 0.19
- relative viability (HOP-62; first compound 0.4 µM): 0.201
- relative viability (HOP-62; first compound 1.265 µM): 0.156
- relative viability (HOP-62; first compound 4 µM): 0.128
- relative viability (LC-2-ad; first compound 0.04 µM): 0.754
- relative viability (LC-2-ad; first compound 0.1265 µM): 0.621
- relative viability (LC-2-ad; first compound 0.4 µM): 0.708
- relative viability (LC-2-ad; first compound 1.265 µM): 0.574
- relative viability (LC-2-ad; first compound 4 µM): 0.3
- relative viability (LU99A; first compound 0.04 µM): 0.932
- relative viability (LU99A; first compound 0.4 µM): 0.623
- relative viability (LU99A; first compound 1.265 µM): 0.293
- relative viability (LU99A; first compound 4 µM): 0.254
- relative viability (LXF-289; first compound 0.04 µM): 0.368
- relative viability (LXF-289; first compound 0.1265 µM): 0.401
- relative viability (LXF-289; first compound 0.4 µM): 0.344
- relative viability (LXF-289; first compound 1.265 µM): 0.226
- relative viability (LXF-289; first compound 4 µM): 0.222
- relative viability (NCI-H1666; first compound 0.04 µM): 0.763
- relative viability (NCI-H1666; first compound 0.1265 µM): 0.745
- relative viability (NCI-H1666; first compound 0.4 µM): 0.577
- relative viability (NCI-H1666; first compound 1.265 µM): 0.589
- relative viability (NCI-H1666; first compound 4 µM): 0.504
- relative viability (NCI-H1792; first compound 0.04 µM): 0.477
- relative viability (NCI-H1792; first compound 0.1265 µM): 0.729
- relative viability (NCI-H1792; first compound 0.4 µM): 0.525
- relative viability (NCI-H1792; first compound 1.265 µM): 0.334
- relative viability (NCI-H1792; first compound 4 µM): 0.187
- relative viability (NCI-H1793; first compound 0.04 µM): 0.557
- relative viability (NCI-H1793; first compound 0.1265 µM): 0.433
- relative viability (NCI-H1793; first compound 0.4 µM): 0.468
- relative viability (NCI-H1793; first compound 1.265 µM): 0.418
- relative viability (NCI-H1793; first compound 4 µM): 0.484
- relative viability (NCI-H1915; first compound 0.04 µM): 0.279
- relative viability (NCI-H1915; first compound 0.4 µM): 0.255
- relative viability (NCI-H1915; first compound 1.265 µM): 0.246
- relative viability (NCI-H1915; first compound 4 µM): 0.248
- relative viability (NCI-H1944; first compound 0.04 µM): 0.438
- relative viability (NCI-H1944; first compound 0.1265 µM): 0.405
- relative viability (NCI-H1944; first compound 0.4 µM): 0.409
- relative viability (NCI-H1944; first compound 1.265 µM): 0.335
- relative viability (NCI-H1944; first compound 4 µM): 0.313
- relative viability (NCI-H2009; first compound 0.04 µM): 0.38
- relative viability (NCI-H2009; first compound 0.1265 µM): 0.296
- relative viability (NCI-H2009; first compound 0.4 µM): 0.354
- relative viability (NCI-H2009; first compound 1.265 µM): 0.276
- relative viability (NCI-H2009; first compound 4 µM): 0.213
- relative viability (NCI-H2085; first compound 0.04 µM): 0.538
- relative viability (NCI-H2085; first compound 0.1265 µM): 0.595
- relative viability (NCI-H2085; first compound 0.4 µM): 0.509
- relative viability (NCI-H2085; first compound 1.265 µM): 0.454
- relative viability (NCI-H2085; first compound 4 µM): 0.473
- relative viability (NCI-H2170; first compound 0.04 µM): 0.415
- relative viability (NCI-H2170; first compound 0.1265 µM): 0.441
- relative viability (NCI-H2170; first compound 0.4 µM): 0.473
- relative viability (NCI-H2170; first compound 1.265 µM): 0.345
- relative viability (NCI-H2170; first compound 4 µM): 0.255
- relative viability (NCI-H358; first compound 0.04 µM): 0.212
- relative viability (NCI-H358; first compound 0.1265 µM): 0.227
- relative viability (NCI-H358; first compound 0.4 µM): 0.235
- relative viability (NCI-H358; first compound 1.265 µM): 0.188
- relative viability (NCI-H358; first compound 4 µM): 0.206
- relative viability (NCI-H460; first compound 0.04 µM): 0.488
- relative viability (NCI-H460; first compound 0.1265 µM): 0.344
- relative viability (NCI-H460; first compound 0.4 µM): 0.296
- relative viability (NCI-H460; first compound 1.265 µM): 0.165
- relative viability (NCI-H460; first compound 4 µM): 0.226
- relative viability (SK-LU-1; first compound 0.04 µM): 0.614
- relative viability (SK-LU-1; first compound 0.1265 µM): 0.519
- relative viability (SK-LU-1; first compound 0.4 µM): 0.416
- relative viability (SK-LU-1; first compound 1.265 µM): 0.308
- relative viability (SK-LU-1; first compound 4 µM): 0.213
- relative viability (SW 900; first compound 0.04 µM): 0.431
- relative viability (SW 900; first compound 0.1265 µM): 0.472
- relative viability (SW 900; first compound 0.4 µM): 0.426
- relative viability (SW 900; first compound 1.265 µM): 0.307
- relative viability (SW 900; first compound 4 µM): 0.235
- relative viability (UMC-11; first compound 0.04 µM): 0.514
- relative viability (UMC-11; first compound 0.1265 µM): 0.468
- relative viability (UMC-11; first compound 0.4 µM): 0.328
- relative viability (UMC-11; first compound 1.265 µM): 0.294
- relative viability (UMC-11; first compound 4 µM): 0.309
